Experimental data taken from patent US20150284399A1, “PROCESSES FOR THE PREPARATION OF S1P1 RECEPTOR MODULATORS AND CRYSTALLINE FORMS THEREOF” (Arena Pharmaceuticals, Inc., priority 2010, published 2015).
Read-outs that look alike come from different tables or passages of the source.

Legend:
[1] = test system: rat renal allograft model; conditions: combination with mycophenolate mofetil (MMF); cited from earlier work
[2] = test system: rat cardiac allograft model; conditions: cited from earlier work
[3] = test system: rat skin allograft model; conditions: monotherapy; cited from earlier work
[4] = test system: rat model for autoimmune myocarditis; conditions: cited from earlier work
[5] = test system: type I diabetic vascular endothelium; conditions: Whetzel et al. 2006; cited from earlier work
[6] = test system: vasculature; conditions: Bolick et al. 2005; cited from earlier work
[7] = test system: keratinocytes; conditions: Kim et al. 2004; cited from earlier work
[8] = organ transplantation; cited from earlier work
[9] = Dynamic moisture sorption (DMS); assay type: physicochemical; conditions: crystalline form
Procedure: Samples are prepared for dynamic moisture-sorption analysis by placing ˜5 mg to ˜20 mg of compound in a tarred sample holder on the VTI balance. The instrument is a dynamic moisture-sorption analyzer, VTI Corporation, SGA-100. A drying step is run at 40° C. and ˜1% RH for 1 h. The isotherm temperature is 25° C. A % weight change over 10 min (5 weight readings) of dm/dt=0.010 or 2 h, whichever occurs first, is required before continuing to the next step. The water content of the sample equilibrated as described above was determined from 30% RH to 90% RH and then back down to 10% RH.

[10] = test system: Female C57BL/6 mice; test: MOG-induced experimental autoimmune encephalomyelitis (EAE) in mice; assay type: in vivo, mouse; conditions: oral, once a day from day 3 until day 21; 0.1, 0.3 and 1.0 mg/kg; vs vehicle; FIG. 17
[11] = test system: Male BALB/c mice; test: Mouse Peripheral Lymphocyte Lowering (PLL) assay; assay type: in vivo; conditions: 0.300 mg/kg oral dose in 0.5% methyl cellulose in water; 5 hours post-dose; vs vehicle; FIG. 15
Procedure: Male BALB/c mice (Charles River Laboratories, Wilmington, Mass.) were housed four per cage and maintained in a humidity-controlled (40 to 60%) and temperature-controlled (68 to 72° F.) facility on a 12 h: 12 h light/dark cycle (lights on at 6:30 am) with free access to food (Harlan Teklad, Orange, Calif., Rodent Diet 8604) and water. Mice were allowed (approximately) one week of habituation to the animal facility before testing.
Mice were given a 0.300 mg/kg oral dose of (R)-2-(9-chloro-7-(4-isopropoxy-3-(trifluoromethyl)benzyloxy)-2,3-dihydro-1H-pyrrolo[1,2-a]indol-1-yl)acetic acid L-lysine salt or dosing vehicle (0.5% methyl cellulose in water) in a total volume of 10 mL/kg. Peripheral blood samples were collected at 5 hours post-dose. The mice were anesthetized with isoflurane and blood was collected via cardiac puncture. A complete cell count (CBC), including lymphocyte count, was obtained using a CELL-DYN® 3700 (Abbott Laboratories, Abbott Park, Ill.) instrument. Results are presented in FIG. 15, in which peripheral blood lymphocyte (PBL) count is shown for the 5 hour group.

[12] = molecular target: S1P5 receptor (Homo sapiens, UniProt Q9H228); conditions: Chiba 2005; cited from earlier work
Chain of S1P5 receptor (Q9H228 whole entry): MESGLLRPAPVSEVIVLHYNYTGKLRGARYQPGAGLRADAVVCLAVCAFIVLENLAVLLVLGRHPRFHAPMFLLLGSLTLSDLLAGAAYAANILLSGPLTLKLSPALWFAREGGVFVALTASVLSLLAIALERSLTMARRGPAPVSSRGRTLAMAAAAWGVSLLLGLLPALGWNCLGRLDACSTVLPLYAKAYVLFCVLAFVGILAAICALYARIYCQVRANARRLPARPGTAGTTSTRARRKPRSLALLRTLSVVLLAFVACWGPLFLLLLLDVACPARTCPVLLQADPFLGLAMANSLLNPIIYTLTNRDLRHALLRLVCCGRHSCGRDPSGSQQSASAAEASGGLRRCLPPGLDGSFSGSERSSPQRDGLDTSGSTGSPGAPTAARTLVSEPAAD

[13] = molecular target: T1, S1P4 receptor (Homo sapiens, UniProt O95977); conditions: Chiba 2005; cited from earlier work
T1 sequence (O95977 1-384): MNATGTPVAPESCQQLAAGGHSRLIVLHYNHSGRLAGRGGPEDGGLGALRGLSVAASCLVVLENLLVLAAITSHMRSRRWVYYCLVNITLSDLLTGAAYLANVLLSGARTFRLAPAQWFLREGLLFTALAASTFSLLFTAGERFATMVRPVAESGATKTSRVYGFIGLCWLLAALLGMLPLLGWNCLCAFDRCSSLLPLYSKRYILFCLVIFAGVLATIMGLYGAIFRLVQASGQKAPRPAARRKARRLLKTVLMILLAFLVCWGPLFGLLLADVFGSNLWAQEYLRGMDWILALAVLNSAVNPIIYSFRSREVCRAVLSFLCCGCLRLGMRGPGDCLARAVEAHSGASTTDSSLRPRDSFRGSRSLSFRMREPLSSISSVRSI

[14] = molecular target: S1P2 receptor (Homo sapiens, UniProt O95136); conditions: Chiba 2005; cited from earlier work
Chain of S1P2 receptor (O95136 whole entry): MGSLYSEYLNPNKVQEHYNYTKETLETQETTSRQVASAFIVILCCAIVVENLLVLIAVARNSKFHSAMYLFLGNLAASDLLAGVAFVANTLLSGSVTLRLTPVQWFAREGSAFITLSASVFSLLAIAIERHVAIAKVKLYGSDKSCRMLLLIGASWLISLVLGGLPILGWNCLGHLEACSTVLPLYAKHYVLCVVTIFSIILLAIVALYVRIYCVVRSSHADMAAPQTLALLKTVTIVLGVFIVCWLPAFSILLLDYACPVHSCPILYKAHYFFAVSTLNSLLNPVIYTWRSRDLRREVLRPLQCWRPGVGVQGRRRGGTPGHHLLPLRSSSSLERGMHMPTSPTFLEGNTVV

[15] = attributed to agonism of the S1P3 receptor; cited from earlier work
[16] = test system: human islet cells; conditions: cited from earlier work
[17] = unlike cyclosporin A, FK506 and RAD; cited from earlier work

NC(CO)(CO)CCc1ccc(Sc2cccc(OCc3ccccc3)c2)cc1Cl [KRP-203]
prolonging allograft survival [1]: therapeutic efficacy in combination with mycophenolate mofetil
prolonging allograft survival ([2]; combination with cyclosporin A): synergistic combination with cyclosporin A
prolonging allograft survival ([2]; combination with mycophenolate mofetil (MMF)): therapeutic efficacy in combination with mycophenolate mofetil
prolonging allograft survival ([2]; monotherapy): therapeutic efficacy for prolonging allograft survival
prolonging allograft survival [3]: therapeutic efficacy for prolonging allograft survival
therapeutic efficacy [4]: therapeutic efficacy

O=C(O)CCNCc1ccc2sc(-c3ccc(-c4ccccc4)c(C(F)(F)F)c3)cc2c1 [AUY954]
prolonging allograft survival ([2]; combination with a subtherapeutic dose of RAD001): can prolong rat cardiac allograft survival

FC(F)(F)c1cccc(-c2noc(-c3cc(-c4ccccc4)c(C(F)(F)F)s3)n2)c1 [SEW2871]
proinflammatory monocyte/endothelial interactions [5]: prevents proinflammatory monocyte/endothelial interactions
protection against TNFα-mediated monocyte/endothelial interactions [6]: protects the vasculature against TNFα-mediated monocyte/endothelial interactions

CCCCCCCCCCCCC/C=C/[C@@H](O)[C@@H](N)COP(=O)(O)O [Compound S1P, sphingosine-1-phosphate]
keratinocyte proliferation [7]: inhibits keratinocyte proliferation

C=CC[C@@H]1/C=C(\C)C[C@H](C)C[C@H](OC)[C@H]2O[C@@](O)(C(=O)C(=O)N3CCCC[C@H]3C(=O)O[C@H](/C(C)=C/[C@@H]3CC[C@@H](O)[C@H](OC)C3)[C@H](C)[C@@H](O)CC1=O)[C@H](C)C[C@@H]2OC [FK506]
undesirable side effects [8]: nephrotoxicity, neurotoxicity, β-cell toxicity and gastrointestinal discomfort

CC(C)Oc1ccc(COc2ccc3c(c2)c(Cl)c2n3CC[C@@H]2CC(=O)O)cc1C(F)(F)F.NCCN.O [(R)-2-(9-chloro-7-(4-isopropoxy-3-(trifluoromethyl)benzyloxy)-2,3-dihydro-1H-pyrrolo[1,2-a]indol-1-yl)acetic acid ethylenediamine salt hydrate]
DMS weight gain after adsorption cycle to about 90% RH followed by desorption cycle back to about 10% RH [9]: 25° C.; gains less than about 1.5% weight after undergoing

(R)-2-(9-Chloro-7-(4-isopropoxy-3-(trifluoromethyl)benzyloxy)-2,3-dihydro-1H-pyrrolo[1,2-a]indol-1-yl)acetic acid L-lysine salt
DMS weight gain at a 90% RH hold ([9]; 90% RH hold at 25° C.): FIG. 6: gains less than about 2.2% weight at a 90% RH hold at
DMS weight gain after adsorption cycle to about 90% RH followed by desorption cycle back to about 10% RH [9]: 25° C.; gains less than about 0.25% weight after undergoing a
reduction of the severity of disease symptoms (clinical score) in EAE [10]: exhibits therapeutic efficacy in EAE
peripheral blood lymphocyte (PBL) lowering (lymphopenia) [11]: exhibited activity for inducing PBL lowering (lymphopenia)

CC(C)Oc1ccc(COc2ccc3c(c2)c(Cl)c2n3CC[C@@H]2CC(=O)[O-])cc1C(F)(F)F.O.[Na+] [(R)-2-(9-chloro-7-(4-isopropoxy-3-(trifluoromethyl)benzyloxy)-2,3-dihydro-1H-pyrrolo[1,2-a]indol-1-yl)acetic acid sodium salt hydrate]
DMS weight gain at about 90% relative humidity ([9]; from about 30% RH to about 90% RH at 25° C.): FIG. 9: gains about 2.5% weight at about 90% relative humidity

CCCCCCCCc1ccc(CCC(N)(CO)COP(=O)(O)O)cc1 (centres unmarked) [phosphorylated derivative]
agonist activity on S1P5 receptor [12]: agonist
agonist activity on S1P4 receptor [13]: agonist
agonist activity on S1P2 receptor [14]: not the S1P2 receptor

CCCCCCCCc1ccc(CCC(N)(CO)CO)cc1 [FTY720, fingolimod]
adverse event in clinical trials [15]: transient asymptomatic bradycardia
effects on human islet function [16]: no detrimental effects on human islet function
general immunosuppression while prolonging graft survival [17]: without inducing general immunosuppression
